Patent publication US7326540B2, “Methods for identifying compounds that modulate stabilization of secretase-associated proteins” (priority 2003, dated 2008)
Where a SMILES comes first, the peptide text is derived from it. The star is where a group is joined. Cbz = O=C(OCc1ccccc1)*; CH2F = FC*

Assays:
Assay type in all cases: cell-based, Chinese Hamster
[1] = system: Aβ production in CHO cells overexpressing APP751 and PS1 WT; experiment: Secreted Aβ ELISA in CHO cells overexpressing APP751 and PS1 during induced apoptosis
Protocol: We examined Aβ generation induced by apoptosis in CHO cell lines. We used CHO cell lines stably overexpressing both APP751 and PS1 WT. For the induction of apoptosis, we used 1 μM staurosporine (STS) in serum free media. Secreted Aβ was measured in the conditioned media of cells treated with STS for 6 hrs using a sensitive ELISA assay [courtesy of Dr. Dennis Selkoe; M. S. Wolfe et al., Nature 398, 513-7 (1999)].
Treatment with either STS for 6 hrs or etoposide for 12 hrs induced from 10 to 20% of cell death assayed by MTT assay, which is a colorimetric short-term suspension culture assay in which the yellow tetrazolium salt (MTT) is reduced in metabolically active cells to form insoluble purple formazan crystals, which are solubilized by the addition of a detergent.
Chinese Hamster Ovary (CHO) cells expressing APP751 and BACE (CAB), CHO cells expressing full-length APP and wild-type PS1 (CHO-APP751/PS1) or expressing C99 and wild-type PS1 (CHO-CC99/PS1), H4 human neuroglioma cells expressing APP751 (H4-APP751), mouse embryonic fibroblast (MEF), embryonic stem (ES) cells, and human epithelial A431 cells were grown as described previously (Marambaud, P. et al., Embo J 21, 1948-56 (2002); Cai, H. et al., Nat Neurosci 4, 233-4 (2001); Sato, N. et al., Nat Cell Biol 2, 863-70 (2000); Puglielli, L., Ellis, B. C., Saunders, A. J. & Kovacs, D. M., J Biol Chem 278, 19777-83 (2003); Wolfe, M. S. et al., Nature 398, 513-7 (1999)). For the induction of apoptosis, we used staurosporine or etoposide (Calbiochem (EMD Biosciences, San Diego, Calif.)). For Aβ measurements, cells were seeded at the density of 0.5×10^6 cells per well in 6 well plates. After 48 hours, cells were treated with either STS (1 μM) for 6 hours. […] For time-course experiments, cells were seeded at the density of 2×10^6 cells per 100 mm dish and treated with STS (1 μM) or etoposide (100 μg/mL). At different time points (0, 3, 6, 9, 12 and 24 hours), the cells were scraped, centrifuged and then lysed in buffer containing 1% NP40. Western blot analysis was performed as previously described (Tesco, G., Koh, Y. H. & Tanzi, R. E., J Biol Chem 278, 46074-80 (2003)). Densitometry analysis was performed on a Macintosh computer using the public domain NIH Image program (developed at the U.S. National Institutes of Health and available on the Internet at http://rsb.info.nih.gov/nih-image/).
(§1) Secreted Aβ1-total was measured in the conditioned media of untreated cells or of cells treated with STS or STS plus zVAD using a sensitive ELISA (Wolfe, M. S. et al., Nature 398, 513-7 (1999). At least three different experiments were carried out and each experiment was performed at least in triplicate.

[2] = system: BACE; experiment: BACE protein levels by Western blot and densitometry in CAB cells
Protocol: Chinese Hamster Ovary (CHO) cells expressing APP751 and BACE (CAB), CHO cells expressing full-length APP and wild-type PS1 (CHO-APP751/PS1) or expressing C99 and wild-type PS1 (CHO-CC99/PS1), H4 human neuroglioma cells expressing APP751 (H4-APP751), mouse embryonic fibroblast (MEF), embryonic stem (ES) cells, and human epithelial A431 cells were grown as described previously (Marambaud, P. et al., Embo J 21, 1948-56 (2002); Cai, H. et al., Nat Neurosci 4, 233-4 (2001); Sato, N. et al., Nat Cell Biol 2, 863-70 (2000); Puglielli, L., Ellis, B. C., Saunders, A. J. & Kovacs, D. M., J Biol Chem 278, 19777-83 (2003); Wolfe, M. S. et al., Nature 398, 513-7 (1999)). For the induction of apoptosis, we used staurosporine or etoposide (Calbiochem (EMD Biosciences, San Diego, Calif.)). For Aβ measurements, cells were seeded at the density of 0.5×10^6 cells per well in 6 well plates. After 48 hours, cells were treated with either STS (1 μM) for 6 hours. In order to inhibit caspase activation a sister plate of cells was pre-treated with zVAD ([…], Enzyme Systems Products) for 1 hour before STS treatment. For time-course experiments, cells were seeded at the density of 2×10^6 cells per 100 mm dish and treated with STS (1 μM) or etoposide (100 μg/mL). At different time points (0, 3, 6, 9, 12 and 24 hours), the cells were scraped, centrifuged and then lysed in buffer containing 1% NP40. Western blot analysis was performed as previously described (Tesco, G., Koh, Y. H. & Tanzi, R. E., J Biol Chem 278, 46074-80 (2003)). Densitometry analysis was performed on a Macintosh computer using the public domain NIH Image program (developed at the U.S. National Institutes of Health and available on the Internet at http://rsb.info.nih.gov/nih-image/).
It has been previously shown that overexpression of BACE enhances β-secretase cleavage of APP leading to the accumulation of intracellular C99 (Vassar, R. et al., Science 286, 735-41 (1999)). We first asked whether apoptosis/caspase activation leads to accumulation of C99 owing to increased β-secretase activity.

[3] = system: BACE; experiment: BACE protein levels by Western blot in CHO cells overexpressing APP751 and PS1WT
Description: We examined whether the apoptosis-mediated increase in Aβ generation was associated with changes in the levels and activities of BACE and β-secretase. […] In addition, upregulation of BACE occured also in H4 human neuroglioma (FIG. 3B) and in BACE+/+ mouse fibroblasts (FIG. 3C). BACE−/− mouse fibroblasts were used to show the specificity of the antibody used to detect BACE (FIG. 3C).
(§2) Chinese Hamster Ovary (CHO) cells expressing APP751 and BACE (CAB), CHO cells expressing full-length APP and wild-type PS1 (CHO-APP751/PS1) or expressing C99 and wild-type PS1 (CHO-CC99/PS1), H4 human neuroglioma cells expressing APP751 (H4-APP751), mouse embryonic fibroblast (MEF), embryonic stem (ES) cells, and human epithelial A431 cells were grown as described previously (Marambaud, P. et al., Embo J 21, 1948-56 (2002); Cai, H. et al., Nat Neurosci 4, 233-4 (2001); Sato, N. et al., Nat Cell Biol 2, 863-70 (2000); Puglielli, L., Ellis, B. C., Saunders, A. J. & Kovacs, D. M., J Biol Chem 278, 19777-83 (2003); Wolfe, M. S. et al., Nature 398, 513-7 (1999)). For the induction of apoptosis, we used staurosporine or etoposide (Calbiochem (EMD Biosciences, San Diego, Calif.)). For Aβ measurements, cells were seeded at the density of 0.5×10^6 cells per well in 6 well plates. After 48 hours, cells were treated with either STS (1 μM) for 6 hours. […]

[4] = system: γ-secretase; experiment: Secreted Aβ1-total ELISA in CHO-CC99/PS1 cells; conditions: STS-treated CHO-CC99/PS1 cells, 6 hours
Protocol: as §2
as §1, with “triplicate. […]” for “triplicate.”

[5] = etoposide 100 μg/mL + 200 μM zVAD, 12 hrs, compared to etoposide treated cells
[6] = zVAD 200 μM pretreated 1 hr before STS, compared to STS-treated cells, p<0.05
[7] = 1 μM STS in serum free media, 6 hrs, p<0.05 t-test

SMILES	Secreted Aβ42 [1, 5]	Secreted Aβtotal [1, 5]	Secreted Aβ1-42 [1, 6]	Secreted Aβtotal [1, 6]	BACE accumulation during STS-induced apoptosis ([2]; zVAD, both CAB and H4-APP751 cells)	BACE upregulation during STS-induced apoptosis ([3]; zVAD 100 μM, all cell types (CHO, H4 human neuroglioma, BACE+/+ mouse fibroblasts))	Secreted Aβ1-42 [1, 7]	Secreted Aβtotal [1, 7]	Aβ1-total increase ([1]; STS-treated CHO-APP751/PS1 cells, 6 hours)	BACE protein levels increase ([2]; after 6 hours or 24 hours of STS treatment, CAB cells)	Aβ1-total increase compared to untreated cells [4]	BACE protein levels ([3]; after 24 hrs of STS treatment)
COC(=O)C[C@H](NC(=O)[C@H](C)NC(=O)[C@@H](NC(=O)OCc1ccccc1)C(C)C)C(=O)CF [zVAD] (Cbz-Val-Ala-Asp(OMe)-CH2F)	significantly attenuate	significantly attenuate	significantly reduced	significantly reduced	prevented BACE accumulation	prevented BACE upregulation	–	–	–	–	–	–
CN[C@@H]1C[C@H]2O[C@@](C)([C@@H]1OC)n1c3ccccc3c3c4c(c5c6ccccc6n2c5c31)C(=O)NC4 [STS, staurosporine]	–	–	–	–	–	–	significantly increased	significantly increased	~2.5 fold	~4 fold	~1.5 fold	significant increase
